# Source: patent US6762200B2, “Oxa(thia)zolidine derivative and anti-inflammatory drug” (Nippon Soda Co. Ltd., priority 2000, dated 2004)
# Assays:
# IV-cPLA(2) = target: T1, IV-cPLA(2) (Homo sapiens, UniProt P47712); experiment: PLA(2) activity, hydrolysis of bis-BODIPY FL C11-PC in activated U937 cells; format: cell-based; details: for inhibition at 0.1 µM: U-937, 0.1 μM
# T1 sequence (P47712 1-749): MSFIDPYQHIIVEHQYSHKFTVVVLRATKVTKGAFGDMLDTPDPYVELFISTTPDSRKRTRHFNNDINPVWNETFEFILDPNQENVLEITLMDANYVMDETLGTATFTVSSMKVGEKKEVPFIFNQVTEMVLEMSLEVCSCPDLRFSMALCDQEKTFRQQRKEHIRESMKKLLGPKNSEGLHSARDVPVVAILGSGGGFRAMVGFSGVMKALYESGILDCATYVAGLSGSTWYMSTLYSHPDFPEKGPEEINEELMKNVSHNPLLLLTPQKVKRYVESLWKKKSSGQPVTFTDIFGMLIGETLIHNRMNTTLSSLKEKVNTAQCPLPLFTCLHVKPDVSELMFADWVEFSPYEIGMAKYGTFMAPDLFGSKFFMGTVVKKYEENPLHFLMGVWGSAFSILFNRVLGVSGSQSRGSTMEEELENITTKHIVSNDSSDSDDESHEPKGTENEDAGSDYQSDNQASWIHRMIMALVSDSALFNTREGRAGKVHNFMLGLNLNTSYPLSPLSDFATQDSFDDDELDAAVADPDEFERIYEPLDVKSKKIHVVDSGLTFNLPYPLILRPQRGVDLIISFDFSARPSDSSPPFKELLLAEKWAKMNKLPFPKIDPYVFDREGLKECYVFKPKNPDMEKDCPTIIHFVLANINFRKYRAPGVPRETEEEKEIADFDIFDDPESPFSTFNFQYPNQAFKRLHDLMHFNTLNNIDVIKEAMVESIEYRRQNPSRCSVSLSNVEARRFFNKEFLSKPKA
# Experimental: The PLA(2) activity was measured by quantitatively analyzing the fluorescent product of hydrolysis from 1,2-bis-(4,4-difluoro-5,7-dimethyl-4-bora-3a,4a-diaza-s-indecene-3-undecanoyl)-sn-glycero-3-phosphocholine (hereinafter referred to bis-BODIPY®FL C11—PC, Molecular Probes, Inc., B-7701) using activated U937 cells (human monoblastic lymphoma cell line) by inflammatory stimulus (Meshulam, T. et al., The journal of Biological Chemistry 267 (30): 21465-21470 (1992); and Solito, E. et al., British Journal of Pharmacology 124: 1675-1683 (1998).). The substrate bis-BODIPY®FL C11—PC is incorporated into cellular membranes, the proximity of the BODIPY FL fluorophores on adjacent phospholipid acyl chains causes fluorescence self-quenching. Separation of the fluorophores upon hydrolytic cleavage of one of the acyl chains by PLA(1) or the PLA(2) results in increased fluorescence. In the activated U937 by inflammatory stimulus, it is shown that this substrate should be cleaved enzymatically by IV-cPLA(2) from the feature of its behaviors including sensitivity profiles against the inhibitors.
# The human cell line U937 was purchased from Dai-Nippon Pharmaceuticals Co., Ltd. The cells were maintained by transferring every 3-4 days into RPMI 1640 medium (Sigma Chemical Co., R6504) supplemented with heat-inactivated 10% fetal bovine serum (Fetal Bovine Serum, Sigma Chemical Co., F 4135) in a 5% CO2 humidified atmosphere at 37° C. The cells were transferred into the culture medium described above, containing 1.2% (v/v) dimethylsulfoxide (hereinafter referred to as […], Nacalai tesque Co., Ltd., D 134-45), and pre-cultured for 96 to 120 hours so as to differentiate into the macrophage-like cells to be provided for the assay. The macrophage-like cells were collected and washed by centrifugation with the Assay medium (Dulbecco's phosphate buffered saline (hereinafter referred to as PBS)-2.2 mM glucose-2.5 μm albumin). Then, Phorbol 12-Myristate 13-Acetate (hereinafter referred to as TPA, Sigma Chemical Co., P 8139) was added to the Assay medium to be 1×10^−8M as the final concentration. Then, the macrophage-like cells were further cultured for an hour to be activated (Rzigalinski, B. A. & Rosenthal, M. D., Biochimica et Biophysica Acta 1223: 219-225 (1994); and Gonchar, M. V. et al., Biochemical and Biophysical Research Communication, 249: 829-832 (1998).).
# For preparing substrate liposome suspension, bis-BODIPY®FL C11—PC was combined with phosphatidylcholine (Sigma Chemical Co., P 7769) at 1:9 molar ratio in chloroform, and dried under nitrogen flow. The dried mixture was suspended with the Assay medium at 100 μg/mL, voltexed and sonicated for an hour on ice under dark condition.
# The test compound was dissolved with DMSO at 30 mM, and the solution diluted with either DMSO or the Assay medium before addition into the reaction mixture. The DMSO concentration in the reaction mixture was controlled so as to be no more than 0.1%. The 30-fold concentration of test compound solution was put into each well of MICRPTEST™ Tissue Culture Plate, 96 Well (Falcon, 3072) at a rate of 2.5 μL/well. To the respective well was added 25 μL/well of the activated U937 cell suspension ([…]), and the cells were pre-cultured for 120 min. at 37° C. in a 5% CO2 atmosphere incubator. 47.5 μL/well of the substrate liposome suspension with 1.5×10^−6M A23187 (Sigma Chemical Co., C 7522) was added into each well to prepare 75 μL/well of the total reaction mixture, followed by culture for 30 min. under the same conditions with shielding against light. 100 μL/well of 0.1% GEDTA (Dojindo Laboratories Co. Ltd., 348-01311) methanol solution was added into each well and mixed to stop the reaction. […]
# TPA-induced ear edema = format: in vivo, ICR-strain male mouse; details: topical, 0.3 mg/20 μL/ear × 2; 6 hours after TPA
# Experimental: This test was carried out referring to the method of Carlson, R. P. et al. (Agents and Actions, 17(2): 197-204 (1985).) and the method of Chang, J. (European Journal of Pharmacology, 142: 197-205 (1987).). […] 6 hours later, the thickness of each ear at the particular part was respectively measured three times using a digimatic micrometer to calculate the mean value. Ear edema was determined by subtracting the mean thickness of the left ear as without treatment from that of the right ear as TPA-applied. […] As the positive control, 100 mg/kg of Hydrocortisone (Sigma Chemical Co., H 4001) suspension was applied to the mouse similarly as for the compound of the present invention.
# [1] = system: acetic acid-induced writhes; experiment: Acetic acid writhing; format: in vivo, ICR-strain male mouse; details: i.p., 10 to 20 min after acetic acid
# Experimental: This test was carried out referring to the method of Inoue, K., Motonaga, A. & Nishimura, T (Arzneimittel Forshung/Drug Research, 41 (1): 235-239 (1991)). More specifically, 7.5 mL/kg of 0.9% acetic acid solution was injected intraperitoneally into an ICR-strain male mouse (5 to 7 weeks old), and the induced writhes (characteristic behaviors of convulsive contracting the abdomen, twisting the body and/or extending the legs) were observed. Number of writhes of each mouse was measured during 10 to 20 min. period after acetic acid administration. The compound of the present invention was homogeneously suspended in 2% Tween 80/saline for injection use, and was injected intraperitoneally 30 min. before the induction by the acetic acid injection. Alternatively, the compound of the present invention was homogeneously suspended in 2% Tween 80/distilled water, and was administrated orally two hours before the induction by the acetic acid injection. The analgesic activity of the compounds according to the present invention was evaluated on the basis of the degree of inhibiting the number writhes by the administration of the compounds. As the positive control, indomethacin or aspirin was administrated. The analgesic activity of the compounds according to the present invention measured in this test were exemplified in Table 7.
smiles,measurement,setting,value
"C[C@@H]1NC(=N[N+](=O)[O-])O[C@H]1c1ccc(Cl)cc1 (relative stereo) [Compound 1-10, trans-5-(4-chlorophenyl)-4-methyl-2-nitroiminooxazolidine]",inhibition at 0.1 µM,IV-cPLA(2),79%
same,melting point,,123 to 126 °C
"C[C@H]1[C@H](c2ccc(Cl)cc2)OC(=N[N+](=O)[O-])N1Cc1ccc(Cl)nc1 (relative stereo) [Compound 1-12, trans-5-(4-chlorophenyl)-4-methyl-3-(2-chloro-5-pyridylmethyl)-2-nitroiminooxazolidine]",Ear Edema Inhibition (%),TPA-induced ear edema,79%
same,inhibition at 0.1 µM,IV-cPLA(2),52%
same,Number of writhes (Mean ± S.E.),[1]; 1 mg/kg,10.0 ± 1.1
"CC(=O)Oc1ccccc1C(=O)O [Aspirin, aspirin, reference compound]",Number of writhes (Mean ± S.E.),[1]; 30 mg/kg,9.5 ± 2.0
CN=C1OC(c2ccc(C)cc2)C(C)N1C(=O)NC1CCCCO1 (centres unmarked) [Compound 1-22],Ear Edema Inhibition (%),TPA-induced ear edema,56%
same,Inhibition (%),IV-cPLA(2); 0.1 μM,84%
same,Number of writhes (Mean ± S.E.),[1]; 1 mg/kg,12.7 ± 4.1
CCOC(=O)CCC(NC(=O)N1C(=O)SC(c2ccc(Cl)cc2)C1C)C(=O)OCC (centres unmarked) [Compound 2-26],Ear Edema Inhibition (%),TPA-induced ear edema,86%
same,Inhibition (%),IV-cPLA(2); 0.1 μM,77%
same,Number of writhes (Mean ± S.E.),[1]; 0.3 mg/kg,9.8 ± 1.9
COC1CCCC(NC(=O)N2C(=O)OC(c3ccc4c(c3)CCCC4)C2C)O1 (centres unmarked) [Compound 2-135],Ear Edema Inhibition (%),TPA-induced ear edema,84%
same,Inhibition (%),IV-cPLA(2); 0.01 μM,64%
same,Number of writhes (Mean ± S.E.),[1]; 1 mg/kg,0.8 ± 0.8
Cc1ccc(C2SC(=O)N(C(=O)NC3CCCCO3)C2C)cc1 (centres unmarked) [Compound 2-189],Ear Edema Inhibition (%),TPA-induced ear edema,84%
same,Inhibition (%),IV-cPLA(2); 0.01 μM,86%
same,Number of writhes (Mean ± S.E.),[1]; 1 mg/kg,0.8 ± 0.5
"COc1ccc2c(c1)c(CC(=O)O)c(C)n2C(=O)c1ccc(Cl)cc1 [Indomethacin, indomethacin, reference compound]",Number of writhes (Mean ± S.E.),[1]; 3 mg/kg,13.8 ± 3.0
same,Number of writhes (Mean ± S.E.),[1]; 10 mg/kg,4.8 ± 0.9
